Measurements as given in the PolyMetriX glass transition set.
± gives the standard deviation of the reports.

glass transition temperature	Structure (SMILES)
-22.00 °C	*CCCCCCOC(=O)OCCCCCCCCCCCCOC(=O)OCCCCCCOc1ccc(Oc2ccc(O*)cc2)cc1 (repeat unit)
123 ± 0.6 °C	*Oc1ccc(C(CCC)c2ccc(OC(*)=O)cc2)cc1 (repeat unit) [Poly[1,1-butane bis(4-phenyl)carbonate] ]
282.00 °C	*c1ccc(OC(=O)c2ccc(C(=O)Oc3ccc(C4(*)c5ccccc5C(=O)N4C)cc3)cc2)cc1 (repeat unit)
37.00 °C	*CC(*)(C)C(=O)OCCOCCOCCOc1ccc(/N=N/c2ccc(C#N)cc2)cc1 (repeat unit)
257.00 °C	*c1cccc(C(=O)Nc2ccc(Oc3ccc(C(C)(C)c4ccc(Oc5ccc(NC(=O)c6cccc(N7C(=O)c8ccc(-c9ccc%10c(c9)C(=O)N(*)C%10=O)cc8C7=O)c6)cc5)cc4)cc3)cc2)c1 (repeat unit)
370.00 °C	*c1ccc2c(c1)C(=O)N(c1cc(-c3ccc(O)c(N4C(=O)c5ccc(C(*)(C(F)(F)F)C(F)(F)F)cc5C4=O)c3)ccc1O)C2=O (repeat unit)
158.00 °C	*=Nc1ccc(Cc2ccc(NC(=*)c3ccccc3)cc2)cc1 (repeat unit)
231.00 °C	*Sc1ccc(C(=O)CNCCCCCCCCNCC(=O)c2ccc(*)cc2)cc1 (repeat unit)
96.40 °C	*CCCCCCCCCn1c2ccccc2c2cc(/C=C(\C#N)C(=O)OCCCCCCOC(=O)/C(C#N)=C/c3ccc4c(c3)c3ccccc3n4*)ccc21 (repeat unit)
165.00 °C	*C(=O)N1C(=S)N(C(=O)c2ccc3c(c2)C(=O)N(c2ccc(Oc4ccc(N5C(=O)c6ccc(*)cc6C5=O)cc4)cc2)C3=O)C(C)=C(C(=O)OCC)C1c1ccc(OC)cc1OC (repeat unit)
73.00 °C	*CC(*)(C)C(=O)OCc1ccc2c(c1)c1ccccc1n2CCCCCC (repeat unit)
10.00 °C	*CCN(*)C(=O)CCCCCCCCCCCCCCCCC (repeat unit)
45.60 °C	*CC(*)C(=O)OCCCOc1ccc(/N=N/c2ccc([N+](=O)[O-])cc2)cc1 (repeat unit)
232.00 °C	*N/C(C#N)=C(\C#N)NC(=O)c1ccc(C(*)=O)cc1 (repeat unit)
61.10 °C	*O[Si](*)(C)CCCCCCCCCCC(=O)Oc1ccc(-c2ccc(OC(=O)c3ccc(OCCCCCCC)cc3)cc2)cc1 (repeat unit)
90.00 °C	*CC(*)c1ccc(C(C)(O)CCCC)cc1 (repeat unit)
73.00 °C	*CC(*)(C)C(=O)OCCCCCCOc1ccc(C(=O)Oc2ccc(-c3cccc(OC(=O)c4ccc(OC(=O)c5ccc(OCCCCCCCCCCCC)cc5)cc4)c3)cc2)cc1 (repeat unit)
185.50 °C	*Oc1ccc(-c2ccc(OC(=O)c3cccc(C(*)=O)c3)cc2)cc1 (repeat unit)
81.00 °C	*CCCCCCCCOC(=O)Nc1ccc(NC(=O)OCCCCCCCCOc2ccc(-c3ccc(O*)cc3)cc2)c(C)c1 (repeat unit)
138.00 °C	*Oc1ccc(CC2(Cc3ccc(*)cc3)c3ccccc3-c3ccccc32)cc1 (repeat unit)
179.00 °C	*Oc1ccc(C(C)(c2ccccc2)c2ccc(OC(*)=O)cc2)cc1 (repeat unit)
319.00 °C	*Nc1ccc(C2(c3ccc(NC(=O)c4ccc(C(*)=O)cc4)cc3)c3ccccc3-c3ccccc32)cc1 (repeat unit)
122.00 °C	*Oc1ccc(Oc2ccc(Oc3ccc(C(C)(C)c4ccc(*)cc4)cc3)cc2)cc1 (repeat unit)
16.00 °C	*CC(F)(F)C(F)(F)C(F)(F)COC(=O)NCCCCCCNC(=O)O* (repeat unit)
240.00 °C	*C(=O)Nc1cccc(NC(=O)c2ccc(N3C(=O)c4ccc(*)cc4C3=O)cc2)c1 (repeat unit)
322.00 °C	*Oc1ccc(C2(c3ccc(OC(=O)c4ccc(C(*)=O)cc4)cc3)CC3CC2C2CCCC32)cc1 (repeat unit)

glass transition temperature	Structure (SMILES)
230.00 °C	*c1ccc(Oc2ccc(C(C)(C)c3ccc(Oc4ccc(-c5nnc(*)n5-c5ccc(S(C)(=O)=O)cc5)cc4)cc3)cc2)cc1 (repeat unit)
167.00 °C	*Oc1cccc(Oc2ccc(S(=O)(=O)c3ccc(Oc4ccc(C(=O)c5ccc(*)cc5)cc4)cc3)cc2)c1 (repeat unit)
228.00 °C	*Oc1ccc(C2(c3ccc(OC4(F)C(*)(F)C(F)(F)C4(F)F)cc3)c3ccccc3-c3ccccc32)cc1 (repeat unit)
225.00 °C	*Oc1ccc(NC(=O)c2cc(NC(=O)CCCN3C(=O)c4ccccc4C3=O)cc(C(=O)Nc3ccc(*)cc3)c2)cc1 (repeat unit)
171.00 °C	*CC(*)(C)C(=O)NC(C)c1cccc2ccccc12 (repeat unit)
160.00 °C	*C1C(=O)N(c2cc(Br)c(O[Si](CC)(CC)CC)c(Br)c2)C(=O)C1* (repeat unit)
70.34 °C	*O[Si](C)(C)CCC/N=C1C=C(O)/C(=N\CCC[Si](*)(C)C)C=C\1O (repeat unit)
300.00 °C	*c1ccc(Oc2ccc(-c3nc4ccc(-c5ccc6nc(*)c(-c7ccccc7)c(-c7ccccc7)c6c5)cc4c(-c4ccccc4)c3-c3ccccc3)cc2)cc1 (repeat unit)
365.00 °C	*c1cccc(-c2nc3cc4nc(*)c(-c5ccccc5)nc4cc3nc2-c2ccccc2)c1 (repeat unit)
194.00 °C	*Oc1ccc(/C(=C/c2cc(OC)c(/C=C(/c3ccc(*)cc3)c3ccc(C(F)(F)F)cc3)cc2OC)c2ccc(C(F)(F)F)cc2)cc1 (repeat unit)
46.90 °C	*NC(CCC(=O)OCc1ccc(F)cc1)C(*)=O (repeat unit)
266.00 °C	*c1ccc2c(c1)C(=O)N(c1c(CC)cc(Cc3cc(CC)c(N4C(=O)c5ccc(C(*)(C(F)(F)F)C(F)(F)F)cc5C4=O)c(CC)c3)cc1CC)C2=O (repeat unit)
275.00 °C	*c1ccc(Oc2ccc(C(C)(C)c3ccccc3)cc2)c(N2C(=O)c3ccc(-c4ccc5c(c4)C(=O)N(*)C5=O)cc3C2=O)c1 (repeat unit)
127.00 °C	*CC(O)COc1ccc(C(C)(C)c2ccc(OCC(O)COc3ccc(C(=O)Nc4ccc(O*)cc4)cc3)cc2)cc1 (repeat unit)
340.00 °C	*c1ccc(C2(c3ccc(N4C(=O)C(c5ccccc5)=C(c5ccc(C6=C(c7ccccc7)C(=O)N(*)C6=O)cc5)C4=O)cc3)c3ccccc3-c3ccccc32)cc1 (repeat unit)
66.00 °C	*CC(*)c1ccccc1C(=O)OCCCC (repeat unit)
110.00 °C	*CC(*)(C)C(=O)Oc1ccc(C(=O)O)cc1 (repeat unit)
42.50 °C	*OC(=O)c1ccc(CCCCCc2ccc(C(*)=O)cc2)cc1 (repeat unit)
268.00 °C	*C(=O)Nc1ccc(Cc2ccc(NC(=O)c3ccc4c(c3)C(=O)N(c3ccc(/N=N/c5ccc(C)cc5)c(N5C(=O)c6ccc(*)cc6C5=O)c3)C4=O)cc2)cc1 (repeat unit)
104.00 °C	*Oc1ccc(C(CC)c2ccc(OC(*)=S)cc2)cc1 (repeat unit)
240.00 °C	*Oc1ccc(S(=O)(=O)c2ccc(Oc3ccc(C4(c5ccc(Oc6ccc(S(=O)(=O)c7ccc(Oc8ccc(/C=C9\CC/C(=C\c%10ccc(*)cc%10)C9=O)cc8)cc7)cc6)cc5)CCCC4)cc3)cc2)cc1 (repeat unit)
74.00 °C	*c1nc(-c2ccccc2)nc(N(CCCCCCN(*)c2ccccc2)c2ccccc2)n1 (repeat unit)
273.00 °C	*c1ccc(OC(=O)c2cccc(C(=O)Oc3ccc(C4(*)OC(=O)c5ccccc54)cc3C)c2)c(C)c1 (repeat unit)
182.00 °C	*Oc1c(F)c(F)c(S(=O)(=O)c2c(F)c(F)c(Oc3ccc(C(c4ccc(*)cc4)(C(F)(F)F)C(F)(F)F)cc3)c(F)c2F)c(F)c1F (repeat unit)
143.00 °C	*CC(*)(C)C(=O)Oc1ccc(/C=C/c2ccccc2)cc1 (repeat unit)
17.00 °C	*CCOCCOC(=O)NCCCCCCNC(=O)O* (repeat unit)

Structure (SMILES)	glass transition temperature
*c1cccc(P(=O)(c2cccc(-n3c(=O)c4c(-c5ccccc5)c5c(=O)n(*)c(=O)c5c(-c5ccccc5)c4c3=O)c2)c2cc(C(F)(F)F)cc(C(F)(F)F)c2)c1 (repeat unit)	320.00 °C
*c1cccc(P(=O)(c2cccc(N3C(=O)c4ccc(Oc5ccc6c(c5)C(=O)N(*)C6=O)cc4C3=O)c2)c2cc(C(F)(F)F)cc(C(F)(F)F)c2)c1 (repeat unit)	228.00 °C
*c1cccc(P(=O)(c2ccccc2)c2cccc(N3C(=O)c4ccc(Oc5ccc6c(c5)C(=O)N(*)C6=O)cc4C3=O)c2)c1 (repeat unit)	251.00 °C
*OC(=O)OC1CC2CC(*)CC(C1)O2 (repeat unit)	207.00 °C
*CCCCCCOC(=O)CCC(=O)O* (repeat unit)	-50.00 °C
*c1cccc(P(=O)(c2ccc(C(F)(F)F)cc2)c2cccc(-n3c(=O)c4cc5c(=O)n(*)c(=O)c5c(-c5ccc(C(F)(F)F)cc5)c4c3=O)c2)c1 (repeat unit)	303.00 °C
*CC/C=C(/*)c1ccccc1 (repeat unit)	39.50 °C
*CC(OC)C(C(=O)O)C(*)C(=O)O (repeat unit)	144.00 °C
*CC(*)(F)C(=O)OCC(F)(F)C(F)(F)F (repeat unit)	99.00 °C
*CC(*)OC(=O)c1ccc(OC)cc1 (repeat unit)	86.50 °C
*CC(*)c1ccccn1 (repeat unit) [Poly(o-vinyl pyridine) ]	104 ± 1.1 °C
*CCCCCCN1C(=O)C(=O)N(*)C1=O (repeat unit)	55.00 °C
*/C=C(/*)c1ccccc1C[Si](C)(C)C (repeat unit)	170.00 °C
*CC(*)c1ccc(CCCCCC)cc1 (repeat unit)	-27.00 °C
*CCC(*)=O (repeat unit)	15.00 °C
